# Results published in publication PMC2785710 (Bioorganic & medicinal chemistry letters, 2009).
# Assay: in vitro metabolic stability in pooled mouse liver microsomes
# Format: in vitro ADME
# Conditions: for half-life: t1/2, mouse liver microsomes
SMILES,half-life,microsomal CLint
O=C(Nc1ccccc1Cl)c1cnc2ccc(C3CCNCC3)cn12.O=C(O)C(=O)O [Compound 32],348 min,–
O=C(Nc1ccccc1Cl)c1cnn2ccc(-c3ccccc3)cc12 [Compound 54],27 min,51 ± 2.1 µL/min/mg
O=C(Nc1ccccc1Cl)c1cnn2ccc(N3CCCCC3)cc12 [Compound 58],8.3 min,167 ± 4.2 µL/min/mg

# Second part, the molecule after the results:
half-life,microsomal CLint,SMILES
3.8 min,361 ± 64 µL/min/mg,O=C(Nc1ccccc1Cl)c1cnc2ccccn12 [Compound 69]
53 min,26 ± 0.8 µL/min/mg,O=C(Nc1ccccc1Cl)c1cnc2ccc(-c3ccccc3)cn12 [Compound 70]
20 min,71 ± 2 µL/min/mg,O=C(Nc1ccccc1Cl)c1cnc2ccc(N3CCCCC3)cn12 [Compound 71]
